Results from patent US9695155B2, “Herbicidal substituted pyrimidinyloxy benzene compounds” (E. I. DU PONT DE NEMOURS AND COMPANY, priority 2013, dated 2017).

Tests used:
velvetleaf = assay: Test A preemergence; type: in vivo, Abutilon theophrasti; conditions: for Plant response rating, Velvetleaf: 125 g ai/ha, 0 to 100 scale where 0 is no effect and 100 is complete control
Outline: (§1)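 Visual injury scored 0–100 (100 = complete control) against untreated controls about 10 days after treatment in a greenhouse. Test chemicals, formulated with surfactant in non-phytotoxic solvent, were sprayed on soil preemergence or on 2-10 cm, one- to two-leaf plants postemergence.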

chickweed = assay: Test C postemergence; type: in vivo, Stellaria media; conditions: for Plant response rating, Chickweed: Postemergence
Outline: (§2)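 Sown in loam/sand → sprayed pre-emergence; or grown to 1–4 leaves in peat mix → sprayed post-emergence. Same solvent/surfactant formulation both ways. Greenhouse 13–15 d. Score 0–100 visual.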

barnyardgrass [1] = assay: Test B flooded paddy test; type: in vivo, Echinochloa crus-galli; conditions: Flood, 250 g ai/ha; 0 to 100 scale where 0 is no effect and 100 is complete control
Outline: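 Greenhouse flooded-pot test: compounds dosed into 3 cm standing water over 2-leaf plants, flood held constant. Rated visually after 13–15 days on 0–100 (complete control = 100); a dash marks no test result.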

morningglory = assay: Test A preemergence; type: in vivo, Ipomoea spp.; conditions: for Plant response rating, Morningglory: 125 g ai/ha, 0 to 100 scale where 0 is no effect and 100 is complete control; for Morningglory plant response rating: 500 g ai/ha, 0 to 100 scale, 0 no effect, 100 complete control, approx. 10 days
Outline: as §1

oilseed rape = assay: Test C preemergence; type: in vivo, Brassica napus; conditions: for Oilseed Rape plant response rating: preemergence; for Plant response rating, Oilseed Rape: Preemergence, 31 g ai/ha, scale 0 to 100, 0 no effect, 100 complete control
Outline: as §2

corn = assay: Test A postemergence; type: in vivo, Zea mays
Outline: as §1

barnyardgrass [2] = assay: Test C preemergence; type: in vivo, Echinochloa crus-galli; conditions: for Barnyardgrass plant response rating: preemergence; for Plant response rating, Barnyardgrass: Preemergence, 31 g ai/ha, scale 0 to 100, 0 no effect, 100 complete control
Outline: as §2

galium = assay: Test C preemergence; type: in vivo, Galium aparine; conditions: for Galium plant response rating: preemergence; for Plant response rating, Galium: Preemergence, 31 g ai/ha, scale 0 to 100, 0 no effect, 100 complete control
Outline: as §2

large (Lg) crabgrass = assay: Test C preemergence; type: in vivo, Digitaria sanguinalis; conditions: for Crabgrass, Large plant response rating: preemergence; for Plant response rating, Crabgrass, Large: Preemergence, 31 g ai/ha, scale 0 to 100, 0 no effect, 100 complete control
Outline: as §2

Italian ryegrass = assay: Test C preemergence; type: in vivo, Lolium multiflorum; conditions: for Ryegrass, Italian plant response rating: preemergence; for Plant response rating, Ryegrass, Italian: Preemergence, 31 g ai/ha, scale 0 to 100, 0 no effect, 100 complete control
Outline: as §2

soybean = assay: Test C preemergence; type: in vivo, Glycine max; conditions: for Soybean plant response rating: preemergence
Outline: as §2

wheat = assay: Test A preemergence; type: in vivo, Triticum aestivum; conditions: for Plant response rating, Wheat: 125 g ai/ha, 0 to 100 scale where 0 is no effect and 100 is complete control
Outline: as §1

barnyardgrass [3] = assay: Test A preemergence; type: in vivo, Echinochloa crus-galli; conditions: for Plant response rating, Barnyardgrass: 125 g ai/ha, 0 to 100 scale where 0 is no effect and 100 is complete control; for Barnyardgrass plant response rating: 500 g ai/ha, 0 to 100 scale, 0 no effect, 100 complete control, approx. 10 days
Outline: as §1

wild oat = assay: Test C postemergence; type: in vivo, Avena fatua; conditions: for Plant response rating (0 to 100), Oat, Wild: postemergence; for Plant response rating, Oat, Wild: Postemergence, scale 0 to 100 (0 no effect, 100 complete control)
Outline: as §2

[4] = 31 g ai/ha, scale 0 to 100 (0 no effect, 100 complete control), 13 to 15 days
[5] = 62 g ai/ha, scale 0 to 100 (0 no effect, 100 complete control)
[6] = 16 g ai/ha, scale 0 to 100 (0 no effect, 100 complete control)
[7] = 62 g ai/ha, scale 0 (no effect) to 100 (complete control)
[8] = 125 g ai/ha, scale 0 (no effect) to 100 (complete control)
[9] = 125 g ai/ha, 0 to 100 scale where 0 is no effect and 100 is complete control
[10] = 500 g ai/ha, 0 to 100 scale, 0 no effect, 100 complete control, approx. 10 days
[11] = 250 g ai/ha, scale 0 (no effect) to 100 (complete control)

CCOc1cnn(-c2c(C#N)cccc2Oc2ncc(Cl)cn2)c1 [Compound 92]
Plant response rating, Velvetleaf (velvetleaf): 100 | Chickweed plant response rating (chickweed; 16 g ai/ha, postemergence, visual rating, scale 0 to 100 (0 no effect, 100 complete control), 13 to 15 days): 50 | Plant response rating (0 to 100), Chickweed (chickweed; 125 g ai/ha, postemergence): 70 | Plant response rating, Chickweed (chickweed; [4]): 60 | Plant response rating, Chickweed (chickweed; [5]): 60 | Plant response rating, Barnyardgrass (barnyardgrass [1]): 20 | Plant response rating, Morningglory (morningglory): 90 | Morningglory plant response rating (morningglory): 100 | Oilseed Rape plant response rating (oilseed rape; [6]): 80 | Oilseed Rape plant response rating (oilseed rape; [7]): 85 | Oilseed Rape plant response rating (oilseed rape; [8]): 95 | Plant response rating, Oilseed Rape (oilseed rape): 80 | Plant response rating, Corn (corn; [9]): 50 | Plant response rating, Corn (corn; 500 g ai/ha, 0 to 100 scale where 0 is no effect and 100 is complete control): 80 | Barnyardgrass plant response rating (barnyardgrass [2]; [6]): 5 | Barnyardgrass plant response rating (barnyardgrass [2]; [7]): 100 | Barnyardgrass plant response rating (barnyardgrass [2]; [8]): 100 | Plant response rating, Barnyardgrass (barnyardgrass [2]): 75 | Galium plant response rating (galium; [6]): 80 | Galium plant response rating (galium; [7]): 95 | Galium plant response rating (galium; [8]): 98 | Plant response rating, Galium (galium): 85 | Crabgrass, Large plant response rating (large (Lg) crabgrass; [6]): 90 | Crabgrass, Large plant response rating (large (Lg) crabgrass; [7]): 100 | Crabgrass, Large plant response rating (large (Lg) crabgrass; [8]): 100 | Plant response rating, Crabgrass, Large (large (Lg) crabgrass): 100 | Ryegrass, Italian plant response rating (Italian ryegrass; [6]): 0 | Ryegrass, Italian plant response rating (Italian ryegrass; [7]): 50 | Ryegrass, Italian plant response rating (Italian ryegrass; [8]): 85 | Plant response rating, Ryegrass, Italian (Italian ryegrass): 10 | Soybean plant response rating (soybean; [6]): 30 | Soybean plant response rating (soybean; [7]): 80 | Soybean plant response rating (soybean; [8]): 95 | Plant response rating, Soybean (soybean; Preemergence, 31 g ai/ha, scale 0 to 100, 0 no effect, 100 complete control): 65 | Plant response rating, Wheat (wheat): 0 | Plant response rating, Barnyardgrass (barnyardgrass [3]): 60 | Barnyardgrass plant response rating (barnyardgrass [3]): 100 | Plant response rating (0 to 100), Oat, Wild (wild oat; 125 g ai/ha): 15 | Plant response rating, Oat, Wild (wild oat; 31 g ai/ha, 13 to 15 days): 5 | Plant response rating, Oat, Wild (wild oat; 62 g ai/ha): 10

N#Cc1cccc(Oc2ncc(F)cn2)c1-n1cc(Cl)cn1 [Compound 73]
Plant response rating, Velvetleaf (velvetleaf): 100 | Velvetleaf plant response rating (velvetleaf; [10]): 100 | Plant response rating (0 to 100), Chickweed (chickweed; 125 g ai/ha, postemergence): 50 | Plant response rating (0 to 100), Chickweed (chickweed; 250 g ai/ha, postemergence): 80 | Plant response rating, Chickweed (chickweed; [4]): 50 | Plant response rating, Chickweed (chickweed; [5]): 50 | Plant response rating, Barnyardgrass (barnyardgrass [1]): 0 | Plant response rating, Morningglory (morningglory): 90 | Morningglory plant response rating (morningglory): 100 | Oilseed Rape plant response rating (oilseed rape; [7]): 95 | Oilseed Rape plant response rating (oilseed rape; [8]): 100 | Oilseed Rape plant response rating (oilseed rape; [11]): 100 | Plant response rating, Oilseed Rape (oilseed rape): 85 | Plant response rating, Corn (corn; [9]): 40 | Plant response rating, Corn (corn; 500 g ai/ha, 0 to 100 scale, 0 no effect, 100 complete control): 80 | Barnyardgrass plant response rating (barnyardgrass [2]; [7]): 80 | Barnyardgrass plant response rating (barnyardgrass [2]; [8]): 100 | Barnyardgrass plant response rating (barnyardgrass [2]; [11]): 100 | Plant response rating, Barnyardgrass (barnyardgrass [2]): 60 | Galium plant response rating (galium; [7]): 90 | Galium plant response rating (galium; [8]): 90 | Galium plant response rating (galium; [11]): 95 | Plant response rating, Galium (galium): 85 | Crabgrass, Large plant response rating (large (Lg) crabgrass; [7]): 100 | Crabgrass, Large plant response rating (large (Lg) crabgrass; [8]): 100 | Crabgrass, Large plant response rating (large (Lg) crabgrass; [11]): 100 | Plant response rating, Crabgrass, Large (large (Lg) crabgrass): 100 | Ryegrass, Italian plant response rating (Italian ryegrass; [7]): 5 | Ryegrass, Italian plant response rating (Italian ryegrass; [8]): 55 | Ryegrass, Italian plant response rating (Italian ryegrass; [11]): 70 | Plant response rating, Ryegrass, Italian (Italian ryegrass): 0 | Soybean plant response rating (soybean; [7]): 60 | Soybean plant response rating (soybean; [8]): 75 | Soybean plant response rating (soybean; [11]): 90 | Plant response rating, Wheat (wheat): 0 | Wheat plant response rating (wheat; [10]): 80 | Plant response rating, Barnyardgrass (barnyardgrass [3]): 90 | Barnyardgrass plant response rating (barnyardgrass [3]): 100 | Plant response rating (0 to 100), Oat, Wild (wild oat; 125 g ai/ha): 10 | Plant response rating (0 to 100), Oat, Wild (wild oat; 250 g ai/ha): 15 | Plant response rating, Oat, Wild (wild oat; 31 g ai/ha, 13 to 15 days): 5 | Plant response rating, Oat, Wild (wild oat; 62 g ai/ha): 5
